{"source": "patent US11806366B2", "about": "“Peptides and combination of peptides for use in immunotherapy against epithelial ovarian cancer and other cancers” (Immatics Biotechnologies GmbH, priority 2015, dated 2023)", "data": [{"system": "CD8 T cells from blood of healthy donors", "experiment": "Immunogenicity analysis of HLA class I ligands: aAPC priming of CD8 T cells, MHC-multimer staining", "assay_type": "cell-based, human", "details": "immunogenicity of MUC16/CA-125 ligands, HLA allotype as in Table 11", "procedure": "Priming of peptide specific cytotoxic lymphocytes (CTLs) was conducted using an established protocol involving artificial antigen presenting cells (aAPCs) (30). aAPCs consisted of streptavidin-coated polystyrene beads (5.6 μm in diameter; Bangs Laboratories, Fishers, Ind.). […] T cells were isolated from whole blood of healthy donors using a CD8 magnetic cell isolation kit (Miltenyi). One million T-cells per well were cultured in 96 well plates (Corning, Corning, N.Y., USA) and stimulated with the same number of loaded aAPCs in the presence of 5 ng/ml IL-12 (PromoCell, Heidelberg, Germany). T cells were stimulated 3 times in total with weekly stimulation interval. 40 U/ml IL-2 was added 2 days subsequent to each stimulation. T-cell priming was assessed by MHC-multimer staining one week after the last stimulation round.\nFor the applicability of peptide vaccines immunogenicity is a major imperative. In order to evaluate the immunogenic potential of the identified HLA ligands the inventors used a T-cell priming protocol involving artificial antigen presenting cells and T cells isolated from blood of healthy donors. […] This nearly 80% recognition rate verifies the presence of naïve MUC16 recognizing T cells in the human population. Similar results have been obtained for other TOP100 antigens (e.g. IDO1, LGALS1).", "values": [{"substance": "53 (SPSKAFASL; listed as Homo sapiens) [compound 53]", "positive/tested donors": "2/2"}, {"substance": "12 (EVISSRGTSM; listed as Homo sapiens) [compound 12]", "positive/tested donors": "1/3"}, {"substance": "2 (STETSTVLY; listed as Homo sapiens) [compound 2]", "positive/tested donors": "0/2"}, {"substance": "63 (SVLADLVTTK; listed as Homo sapiens) [compound 63]", "positive/tested donors": "0/1"}, {"substance": "77 (VPRSAATTL; listed as Homo sapiens) [compound 77]", "positive/tested donors": "1/2"}, {"substance": "34 (LPHSEITTL; listed as Homo sapiens) [compound 34]", "positive/tested donors": "0/2"}, {"substance": "5 (AVTNVRTSI; listed as Homo sapiens) [compound 5]", "positive/tested donors": "1/3"}, {"substance": "62 (STSQEIHSATK; listed as Homo sapiens) [compound 62]", "positive/tested donors": "2/6"}, {"substance": "72 (TPGNRAISL; listed as Homo sapiens) [compound 72]", "positive/tested donors": "2/2"}, {"substance": "11 (ETILTFHAF; listed as Homo sapiens) [compound 11]", "positive/tested donors": "2/2"}, {"substance": "8 (DPYKATSAV; listed as Homo sapiens) [compound 8]", "positive/tested donors": "3/3"}, {"substance": "18 (FQRQGQTAL; listed as Homo sapiens) [compound 18]", "positive/tested donors": "1/6"}, {"substance": "13 (EVITSSRTTI; listed as Homo sapiens) [compound 13]", "positive/tested donors": "1/1"}, {"substance": "10 (ERSPVIQTL; listed as Homo sapiens) [compound 10]", "positive/tested donors": "1/2"}, {"substance": "548 (KMISAIPTL; listed as Homo sapiens) [compound 548]", "positive/tested donors": "4/6"}, {"substance": "23 (GTSGTPVSK; listed as Homo sapiens) [compound 23]", "positive/tested donors": "0/5"}, {"substance": "48 (SPHPVTALL; listed as Homo sapiens) [compound 48]", "positive/tested donors": "0/1"}, {"substance": "547 (IITEVITRL; listed as Homo sapiens) [compound 547]", "positive/tested donors": "3/10"}, {"substance": "50 (SPQNLRNTL; listed as Homo sapiens) [compound 50]", "positive/tested donors": "1/1"}, {"substance": "14 (EVTSSGRTSI; listed as Homo sapiens) [compound 14]", "positive/tested donors": "2/3"}, {"substance": "7 (DALVLKTV; listed as Homo sapiens) [compound 7]", "positive/tested donors": "1/3"}, {"substance": "549 (TYSEKTTLF; listed as Homo sapiens) [compound 549]", "positive/tested donors": "2/2"}, {"substance": "56 (SQGFSHSQM; listed as Homo sapiens) [compound 56]", "positive/tested donors": "4/5"}]}]}
